Laboratory results reported in patent US8580814B2, “Methods of using (+)-1,4-dihydro-7-[(3S,4S)-3-methoxy-4-(methylamino)-1-pyrrolidinyl]-4- oxo-1-(2-thiazolyl)-1,8-naphthyridine-3-carboxylic acid for treatment of cancer” (priority 2006, dated 2013).
Marks after values point to notes of the source that are not given here.

How the values were obtained:
[1] = system: MO59J (DNAPKcs(−/−)) vs MO59K (DNAPKCs(+/+)); assay: MTT assay, sensitization (DNAPKcs(−/−)); assay type: cell-based
Method: (§1) Cells were then incubated with 5% MTT for 1-2 hours and lysed. MTT was colorimetrically read at 570 nm and EC50's were determined using linear regression analysis.
(§2) Sensitization was carried out with various chemical treatments.

[2] = Safety (adverse events, hematologic effects, DLT, MTD) in patients with advanced solid tumors; assay type: in vivo
Method: SNS-595 was administered to patients with advanced solid cancers as an IV infusion over 10 minutes on 2 schedules. In the first schedule (A), a weekly dose of SNS-595 was administered for three weeks followed by at least 7 days off (qwk×3). In the second schedule (B), a dose of SNS-595 was administered once every three weeks (q3wk).
In both schedules, the starting dose of SNS-595 was 3 mg/m^2, and doses were escalated by sequential cohorts of 3. The doses were doubled until the first related adverse event at or above Grade 2 or until the first abnormal lab value. The doses were then escalated by a modified Fibonacci schema.
In the description herein, the term “maximum tolerated dose” or “MTD” refers to the dose level below a dose of SNS-595 where ≧2 of 6 patients experienced dose limiting toxicity (DLT). The term, “heavily pretreated” or “HP” patient refers to a patient who has previously received >6 courses of an alkylating agent, chemotherapy or >2 courses of platinum, mitomycin-C or any nitrosourea, or XRT to >25% of bone. […] (See, Tolcher et al, JCO 2001; 19:2937-2947).
As used herein, dose limiting toxicity (DLT) refers to absolute neutrophil count (ANC) ≦500 for ≧7 days or febrile neutropenia or platelet nadir <25000 or bleeding or non-hematologic adverse events (AE) ≧Grade 3 (as described in Common Terminology Criteria for Adverse Events Version 3.0 (CTCAE v3.0)), wherein adverse events required >14 days dose delay.

[3] = system: SKOV3 ovarian cancer cell line with or without p53 expression; assay: Combination studies, MTT assay, Combination Index; assay type: cell-based; details: SNS-595 dosed simultaneously with a selection of DNA damaging agents and antimetabolites
Method: (§3) Cell lines and Cell Culture: HCT116 and NCI-H460 cell lines were obtained from ATCC. SKOV3(p53−/−) and SKOV3(p53+/+) were obtained from the lab of Dr. George Stark of the Lerner Institute of the Cleveland Clinic. All cell lines were cultured in RPMI media supplemented with 10% FBS 1% Sodium Bicarbonate solution and 1% Antibiotic Solution (Cellgro).
(§4) MTT assay: Cells were plated at 4000 cells per well (except SKOV3 (p53−/−) which were plated at 8000 cells per well) in a 96 well plate, incubated for 24 hours and then treated with compound. Compound treatment lasted 72 hours. Cells were then incubated with 5% MTT for 1-2 hours, and lysed. MTT was colorimetrically read at 570 nm. The fraction of dead cells was determined by the following formula: Fraction of Dead cells=1−[Abs of sample well−Avg(Abs of no cell control)]/[Avg(Abs of DMSO only control)−Avg(abs of no cell control)]
(§5) Statistical Analysis: The data (Fraction of Dead cells) was analyzed using Calculsyn.V2 (Biosoft) and is herein represented as the value of the Combination Index at Fraction affected (Fa)=0.5. All data is shown with error bars indicating the 95% confidence intervals of the mean value.
(§6) A combination is said to be additive if it yields a Combination Index of 0.85-1.2. […]

[4] = system: H460 lung cancer cell line; assay: Combination studies, MTT assay, Combination Index; assay type: cell-based; details: SNS-595 dosed simultaneously with various cytotoxics, H460, Fa=0.5
Method: as §3, §4, §5, §6

[5] = system: HCT-116 cells treated with 2 mM caffeine; assay: Timing of apoptosis (caspase-3 activation); assay type: cell-based; details: Cell Line Caffeine (HCT-116, 2 mM caffeine); dosed at 30 fold above the EC50 for cytotoxicity
[6] = system: HCT-116 cells with 6 fold lower ATR levels; assay: MTT assay, sensitization (ATRFLOX); assay type: cell-based; details: compound 72 hours
Method: as §1, §2

[7] = system: LM3-Jck human malignant lymphoma tumor; assay: LM3-Jck xenograft model; assay type: in vivo, nude mice; details: for IR (%) (tumor inhibition rate): LM3-JcK, q7d X3, IV; for Survival Ratio: nude, mouse, in vivo, iv, 21 days
Method: LM3-Jck human malignant lymphoma tumor lobes (2-3 mm square) were transplanted subcutaneously into nude mice. Tumors were allowed to grow to approximately 7-14 mm in diameter. […] Acceptable toxicity was defined as a mean group weight loss of 30% or less and not more than one toxic death among 6 treated animals. Anti-tumor activities of the drugs were assessed 21 days after the start of administration.

[8] = system: advanced or refractory acute leukemias; assay: Peripheral blasts in patients with advanced or refractory acute leukemias; assay type: in vivo, human; details: six patients distributed across all dosing groups of Table 15, following cycle 1
Method: (§7) SNS-595 was administered to patients with advanced or refractory acute leukemias as a slow IV push. Diagnoses included AML (19 patients) and ALL (2 patients). All patients had disease refractory to or relapsed from prior therapy (median 3 prior regimens (range 1-6)). A total of 21 patients (9 female and 12 male; median age=64 yrs, range 21-80) were treated in five cohorts using two schedules. In the first schedule (A), a weekly dose of SNS-595 was administered for three weeks followed by 7 days off (qwk×3). In the second schedule (B), a dose of SNS-595 was administered twice a week for two weeks (biwk×2). The cycle duration, including days off, was 28 days for both schedules. […] Additional cycles were permitted if patients achieved stable disease or better. The starting dose was 18 mg/m^2 on schedule A and 9 mg/m^2 on schedule B, and dosage was escalated by cohort. Cohorts of 3-6 patients were accrued to doses using a modified Fibonacci sequence.

[9] = Safety in patients with advanced or refractory acute leukemias; assay type: in vivo, human
Method: as §7

## CN[C@H]1CN(c2ccc3c(=O)c(C(=O)O)cn(-c4nccs4)c3n2)C[C@@H]1OC [SNS-595, (+)-1,4-dihydro-7-[(3S,4S)-3-methoxy-4-(methylamino)-1-pyrrolidinyl]-4-oxo-1-(2-thiazolyl)-1,8-naphthyridine-3-carboxylic acid]
[1]; ATM/ATR or DNAPK activity inhibited or diminished
  sensitization, PIKK dependence: only when DNAPKcs activity is diminished
[1]; MO59J (DNAPKcs(−/−)) vs MO59K (DNAPKCs(+/+)), compound 72 hours
  Sensitization, fold decrease in the EC50 for cytotoxicity (MTT): DNAPKcs(−/−): 10 fold
[2]; human, in vivo
  dose limiting toxicity (DLT): neutropenia
  dose-limiting toxicity (DLT): neutropenia
  edema peripheral, no. patients with Grade ≧ 3/no. patients with any Grade: 0/4*
  grade 4 thrombocytopenia: two patients
  non-hematologic toxicities: mostly grade 1/2
  pain in extremity, no. patients with Grade ≧ 3/no. patients with any Grade: 0/5
[2]; q3wk, 1 patient
  SAE possibly related to study drug: Sepsis, CTCAE v3.0 Grade: Grade 3
[2]; study A (qwk×3)
  MTD: 15 mg/m^2
[2]; study B (q3wk), heavily pretreated (HP) patients
  MTD: 48 mg/m^2
[2]; study B (q3wk), minimally pretreated (MP) patients
  MTD: 60 mg/m^2
[3]
  change in the combination index between SKOV3 with or without p53 expression: no significant change
[4]
  combination indices: significantly synergistic or at least additive
[5]
  Timing of apoptosis: fraction of cell cycle to achieve 50% maximal caspase-3 activation: 0.25
[6]
  Sensitization, fold decrease in the EC50 for cytotoxicity (MTT): ATRFLOX: 1 fold
[7]; 20 and 25 mg/kg
  antitumor activity against LM-3 Jck malignant lymphoma: strong antitumor activity with complete tumor regressions
[7]; 20 mg/kg
  IR (%) (tumor inhibition rate): 98.9* %
  Survival Ratio: 6/6
[7]; 25 mg/kg
  IR (%) (tumor inhibition rate): 98.5* %
  Survival Ratio: 6/6
[8]
  reductions in peripheral blasts: greater than 50%
[9]; acute leukemia patients
  Grade 4 neutropenic fever: only one patient
  Non-dose limiting toxicities: nausea/vomiting, diarrhea, and mucositis
[9]; biwk x2, 1 patient
  SAE possibly related to study drug: Infection, CTCAE v3.0 Grade: Grade 3
  SAE possibly related to study drug: Neutropenic Fevers, CTCAE v3.0 Grade: Grade 4
[9]; qwk x3, 1 patient
  SAE possibly related to study drug: Infection with Neutropenia, CTCAE v3.0 Grade: Grade 3
  SAE possibly related to study drug: Pneumonia with Neutropenia, CTCAE v3.0 Grade: Grade 3
[9]; up to 13.5 mg/m^2 on the biwk×2 schedule
  dose limiting toxicities (DLTs): No dose limiting toxicities
[9]; up to 27 mg/m^2 on the qwk×3 schedule
  dose limiting toxicities (DLTs): No dose limiting toxicities
